Values joined by “and” are separate entries in the source; they are usually repeats but may differ in a detail not shown here. Equal values may be shown once.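 Results reflect a 48-hour exposure of cells in 96-well plates to compound at five concentrations. The concentration for 50% growth inhibition is given as GI50. At the TGI there is no net growth.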
Experiments:
Assay in all cases: NCI anticancer screen, dose series, 48 h
ACHN renal = test system: ACHN renal
EKVX NSCLC = test system: EKVX NSCLC
HCT-116 colon = test system: HCT-116 colon
HS 578T breast = test system: HS 578T breast
SK-MEL-2 melanoma = test system: SK-MEL-2 melanoma
SK-MEL-28 melanoma = test system: SK-MEL-28 melanoma
SK-MEL-5 melanoma = test system: SK-MEL-5 melanoma
SN12C renal = test system: SN12C renal
U251 CNS = test system: U251 CNS
HOP-92 NSCLC = test system: HOP-92 NSCLC

| SMILES | GI50 (ACHN renal) | TGI (ACHN renal) | GI50 (EKVX NSCLC) | TGI (EKVX NSCLC) | GI50 (HCT-116 colon) | TGI (HCT-116 colon) | GI50 (HS 578T breast) | TGI (HS 578T breast) | GI50 (SK-MEL-2 melanoma) | TGI (SK-MEL-2 melanoma) | GI50 (SK-MEL-28 melanoma) | TGI (SK-MEL-28 melanoma) | GI50 (SK-MEL-5 melanoma) | TGI (SK-MEL-5 melanoma) | GI50 (SN12C renal) | TGI (SN12C renal) | GI50 (U251 CNS) | TGI (U251 CNS) | TGI (HOP-92 NSCLC) | GI50 (HOP-92 NSCLC) |
| --- | --- | --- | --- | --- | --- | --- | --- | --- | --- | --- | --- | --- | --- | --- | --- | --- | --- | --- | --- | --- |
| CC(=O)C1=C(O)C=C2Oc3c(C(=O)/C=C/c4cc(Cl)cc(Cl)c4)c(O)c(C)c(O)c3[C@]2(C)C1=O | 0.513 µM | 14.2 µM | 0.444 µM | 2.27 µM | 0.465 µM | 1.38 µM | 0.641 µM | 3.89 µM | 0.365 µM | 0.924 µM | 0.637 µM | 2.76 µM | 0.424 µM | 1.05 µM | 0.534 µM | 2.45 µM | 0.41 µM | 1.06 µM |  |  |
| CC(=O)[C@H]1CCC2[C@@H]3CC=C4C[C@@H]([O-])CC[C@]4(C)C3CC[C@@]21C.CC(=O)[C@H]1CCC2[C@@H]3CC=C4C[C@@H]([O-])CC[C@]4(C)C3CC[C@@]21C.CC(=O)[CH-]C(=O)c1ccccc1.CC(=O)[CH-]C(=O)c1ccccc1.Cl.[Ti+4] (stereo not given in full) | 22.8 µM | 99.1 µM |  |  | 25.7 µM | > 100 µM |  |  | 14.7 µM | 31 µM |  |  | 18.3 µM | > 100 µM | 34.1 µM | > 100 µM |  |  |  |  |
| Clc1cccc(C2N3CCCCC3[C@@H]3c4[nH]c5ccccc5c4CCN23)c1 (stereo not given in full) |  | 69.4 µM |  | > 100 µM |  | 30.8 µM |  |  |  | 40.1 µM |  | 79.9 µM |  | 34.1 µM |  | 26.5 µM |  | 73.5 µM | > 100 µM |  |
| CC(=O)[CH-]C(=O)c1ccccc1.CC(=O)[CH-]C(=O)c1ccccc1.O=S(=O)([O-])c1cc([O-])c2c([O-])cc(S(=O)(=O)[O-])cc2c1.[Na+].[Zr+4] | > 100 µM | > 100 µM | > 100 µM | > 100 µM | > 100 µM | > 100 µM |  |  | > 100 µM | > 100 µM | > 100 µM | > 100 µM | > 100 µM | > 100 µM | 97.3 µM | > 100 µM | > 100 µM | > 100 µM |  |  |
| O=c1c(Cl)c(Cl)cnn1CCCl |  | 2.35 µM |  | 15.9 µM |  | 17 µM |  | 12.8 µM |  |  |  | 4.99 µM |  | 15.2 µM |  | 25.5 µM |  | 12.3 µM | 3.48 µM |  |
| CCCCCCCCCC[C@H](O)[C@H](O)CC[C@@H](O)[C@H]1CC[C@@H]([C@H]2CC[C@H](CCCCCCC[C@@H](O)CC3=C[C@H](C)OC3=O)O2)O1 |  | > 100 µM | 18.5 µM |  | 0.966 µM | 61.6 µM |  |  | 27 µM |  | 47 µM | > 100 µM | 0.0863 µM | 3.46 µM and 15.9 µM | 25.3 µM | 74.8 µM |  | > 100 µM |  |  |
| CCOC(=O)C(C#N)C1=CC(=O)C(=O)c2ccc(O)cc21 (stereo not given) |  | > 100 µM |  | > 100 µM |  | > 100 µM |  | > 100 µM |  | > 100 µM |  | > 100 µM |  | > 100 µM |  | > 100 µM |  | > 100 µM |  |  |
| COc1ccc(S(=O)(=O)N(CC(=O)O)c2ccccc2)cc1 |  | > 100 µM |  | > 100 µM |  |  |  |  |  | > 100 µM |  | > 100 µM |  | > 100 µM |  | > 100 µM |  | > 100 µM | > 100 µM |  |
| Nc1c(Cl)ncnc1NCCCCCCCCCCCCNc1ncnc(Cl)c1N |  |  |  | 98.1 µM |  | 6.05 µM |  |  |  | 7.92 µM |  | 5.22 µM |  | 3.88 µM |  | 39.6 µM |  | 4.64 µM | 4.3 µM |  |
| Cc1cccc(C)c1N1C(=O)C(=O)C(c2nc3ccccc3s2)/C(=N\N)C1=O (stereo not given) |  | > 100 µM |  | > 100 µM |  | > 100 µM |  |  |  | > 100 µM |  | > 100 µM |  | > 100 µM |  | > 100 µM |  | > 100 µM | > 100 µM |  |
| O=C(/C=C/c1cccc([N+](=O)[O-])c1)c1ccc([N+](=O)[O-])cc1 |  | > 100 µM |  | > 100 µM |  | > 100 µM |  |  |  | > 100 µM |  | > 100 µM |  | > 100 µM |  | > 100 µM |  | > 100 µM |  |  |
| O=C(Nc1ccc(Cl)c(Cl)c1)C(=O)C(C(=O)c1ccccc1-c1ccccc1)C1OC(=O)c2ccccc21 (stereo not given) |  | > 100 µM |  | 43.4 µM |  | 22.3 µM |  |  |  | 24.7 µM |  | > 100 µM |  | 30.3 µM |  |  |  | 23 µM | 30.2 µM |  |
| COC(=O)[C@@H]1Cc2c([nH]c3ccccc23)[C@H](c2ccccc2)N1 |  | > 100 µM |  | > 100 µM |  | > 100 µM |  |  |  | 82.8 µM |  | > 100 µM |  | 63.4 µM |  | 81.5 µM |  | > 100 µM | > 100 µM |  |
| COC1OC2COC(C)(C)OC2C(OC(C)=O)C1NC(=O)N(CCCl)N=O (stereo not given) |  | > 100 µM |  | > 100 µM |  | > 100 µM |  |  |  | > 100 µM |  | > 100 µM |  | > 100 µM |  | > 100 µM |  | > 100 µM |  |  |
| O=C(Nc1ccc(Cl)cc1Cl)OC(Cn1cncn1)c1ccc(Cl)cc1Cl (stereo not given) |  | 29 µM |  | 31.5 µM |  | 27.1 µM |  |  |  | 33.7 µM |  | 30.1 µM |  | 30.7 µM |  | 30.7 µM |  | 29.7 µM |  |  |
| CCNC(=O)OCc1c(COC(=O)NCC)c(-c2ccc(Cl)c(Cl)c2)n2c1CCC2 |  | 37.5 µM |  |  |  | 33.6 µM |  |  |  | 28.1 µM |  | 36.9 µM |  | 29.8 µM |  |  |  | 28.6 µM | 24.4 µM |  |
| CN(/N=C\c1ccnc2ccccc12)c1ccc([N+](=O)[O-])cc1 |  | > 100 µM |  | > 100 µM |  | > 100 µM |  |  |  | > 100 µM |  | > 100 µM |  | > 100 µM |  | > 100 µM |  | > 100 µM | > 100 µM |  |
| COc1c(-c2ccccc2)nc2ccc(Oc3ccccc3)nn12 |  | > 100 µM |  | > 100 µM |  | > 100 µM |  |  |  | > 94.4 µM |  | 99.5 µM |  | > 63.2 µM |  | > 100 µM |  | > 100 µM | > 100 µM |  |
| Cc1nc2c(o1)C(=Nc1ccccc1)c1nc(C)oc1C2=Nc1ccccc1 |  | 33.6 µM |  |  |  | 37.6 µM |  |  |  | 72.6 µM |  | 44.9 µM |  | 2.34 µM |  | 34.8 µM |  | 33.1 µM | 44.1 µM |  |
| Cn1c2c(c3c(Cl)nncc31)Cc1ccccc1-2 | 11.6 µM | 54.3 µM | 5.79 µM | 44.3 µM | 17.9 µM | > 100 µM | 28 µM | > 100 µM |  |  | 30.2 µM | > 100 µM | 10.3 µM | 24.9 µM | 20.8 µM | 81.7 µM | 20 µM | > 100 µM | 43 µM | 9.47 µM |

From PubChem BioAssay (NCI)
